Laboratory results taken from patent US20250179047A1, “5-[7-(3,4-DIHYDRO-1H-ISOQUINOLINE-2-CARBONYL)-1,2,3,4 TETRAHYDROISOQUINOLIN-6-YL]-1H-PYRROLE-3-CARBOXAMIDE DERIVATIVES, PHARMACEUTICAL COMPOSITIONS CONTAINING THEM AND THEIR USES AS PRO-APOPTOTIC AGENTS” (LES LABORATOIRES SERVIER, priority 2022, published 2025).

Tests used:
BCL2 WT = BCL2 WT (Homo sapiens (Human), UniProt P10415); test: TR-FRET competitive binding assay, BCL2 WT; conditions: Ki determined from IC50, read-out: TR_FRET EKI_Bcl2 WT
Procedure, shortened: (§1)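 Ki derived from IC50 (11-point dilution, 520/495 nm emission ratio) for displacing a fluorescein-labelled PUMA peptide (2 or 20 nM). Target was 0.5 nM E. coli-expressed Halo-tagged BCL2 (1-207) or BCLXL (2-196), terbium-labelled on Halo. Incubation 2 h at 23°C in pH 7.5 Hepes with 150 mM NaCl and 5% DMSO.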

BCL2 G101V [1] = molecular target: BCL2 G101V (Homo sapiens, UniProt P10415, G101V); test: TR-FRET competitive binding assay, BCL2 G101V; conditions: BCL2 G101V; Ki determined from IC50; read-out: TR_FRET EKI_Bcl2 G101V
Procedure, shortened: as §1

BCL2 G101V [2] = test: TR-FRET competitive binding assay, BCL2 G101V; design: species or system human; conditions: ratio Ki BCL2 G101V / Ki BCL2 WT
Procedure, shortened: as §1

BCL2 D103Y = BCL2 D103Y (Homo sapiens, UniProt P10415, D103Y); test: TR-FRET competitive binding assay, BCL2 D103Y; conditions: Ki determined from IC50, read-out: TR_FRET EKI_Bcl2 D103Y
Procedure, shortened: as §1

BCLXL WT = BCLXL WT (Homo sapiens (Human), UniProt Q07817); test: TR-FRET competitive binding assay, BCLXL WT; conditions: for Ki: BCLXL WT, Ki determined from IC50, read-out: TR_FRET EKI BclxL; for TR_FRET EKI BCLxL/WT selectivty ratio: ratio Ki BCLxL / Ki BCL2 WT
Procedure, shortened: as §1

KMS-12-PE Bcl-2 WT = test: In vitro cytotoxicity CellTiter-Glo 48 h, KMS-12-PE Bcl-2 WT; type: cell-based; conditions: Homo sapiens, KMS-12-PE, C50 = concentration needed to reach 50% of the cellular viability
Procedure, shortened: (§2)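 Potency is expressed as C50, the compound concentration at which viability of engineered KMS-12-PE cells (Bcl-2 wild type or G101V) falls to 50%, determined from CellTiter-Glo luminescence after 48 h of treatment over 11 concentrations.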

KMS-12-PE Bcl-2 G101V = test: In vitro cytotoxicity CellTiter-Glo 48 h, KMS-12-PE Bcl-2 G101V; type: cell-based; conditions: for Ratio (G101V/WT): C50 KMS-12-PE Bcl-2 G101V over C50 KMS-12-PE Bcl-2 WT; for IC50: Homo sapiens, KMS-12-PE, 48 h, CellTiter-Glo, C50 = concentration needed to reach 50% of the cellular viability
Procedure, shortened: as §2

Sequence of BCLXL WT (Q07817 other isoform, or with tags, fused parts or gaps): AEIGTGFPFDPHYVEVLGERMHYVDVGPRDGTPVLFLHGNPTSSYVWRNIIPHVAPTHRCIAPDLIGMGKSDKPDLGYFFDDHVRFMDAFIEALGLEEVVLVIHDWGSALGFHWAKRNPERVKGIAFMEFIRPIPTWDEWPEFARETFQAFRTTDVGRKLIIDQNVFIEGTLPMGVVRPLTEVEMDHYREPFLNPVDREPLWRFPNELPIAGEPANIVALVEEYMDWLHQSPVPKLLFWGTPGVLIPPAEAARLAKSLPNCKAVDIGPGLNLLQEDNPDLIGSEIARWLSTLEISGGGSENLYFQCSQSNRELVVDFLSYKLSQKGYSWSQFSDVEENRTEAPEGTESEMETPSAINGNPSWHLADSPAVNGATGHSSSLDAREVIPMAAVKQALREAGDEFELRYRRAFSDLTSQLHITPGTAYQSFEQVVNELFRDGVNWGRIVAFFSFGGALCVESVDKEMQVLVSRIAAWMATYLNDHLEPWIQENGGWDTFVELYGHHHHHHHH

SMILES	Ki (BCL2 WT) [nM]	Ki (BCL2 G101V [1]) [nM]	TR_FRET EKI G101V/WT selectivty ratio (BCL2 G101V [2])	Ki (BCL2 D103Y) [nM]	Ki (BCLXL WT) [nM]	TR_FRET EKI BCLxL/WT selectivty ratio (BCLXL WT)	IC50 (KMS-12-PE Bcl-2 WT) [µM]	Ratio (G101V/WT) (KMS-12-PE Bcl-2 G101V)	IC50 (KMS-12-PE Bcl-2 G101V) [µM]
Cc1c(N(C(=O)c2cc(-c3cc4c(cc3C(=O)N3Cc5ccccc5C[C@H]3CN3CCCCC3)CN(C(=O)Cc3ccc(OCCN5CCN(CC(F)F)CC5)cc3)CC4)n(C)c2C)c2ccc(O)cc2)cc(C#N)n1C [Example 112, N-(5-cyano-1,2-dimethylpyrrol-3-yl)-5-{2-[2-(4-{2-[4-(2,2-difluoroethyl)piperazin-1-yl]ethoxy}phenyl)acetyl]-7-{[(3S)-3-(piperidin-1-ylmethyl)-3,4-dihydro-1H-isoquinolin-2-yl]carbonyl}-3,4-dihydro-1H-isoquinolin-6-yl}-N-(4-hydroxyphenyl)-1,2-dimethylpyrrole-3-carboxamide]	0.05	0.3	5.6	0.1	7.1	134.0	0.0124	5.7	0.0707
COc1cc(OCCN2CCOCC2)ccc1CC(=O)N1CCc2cc(-c3cc(C(=O)N(c4ccc(O)cc4)c4cc(C#N)n(C)c4C)c(C)n3C)c(C(=O)N3Cc4ccccc4C[C@H]3CN3CCCCC3)cc2C1 [Example 114, N-(5-cyano-1,2-dimethyl-1H-pyrrol-3-yl)-N-(4-hydroxyphenyl)-5-[2-(2-{2-methoxy-4-[2-(morpholin-4-yl)ethoxy]phenyl}acetyl)-7-[(3S)-3-[(piperidin-1-yl)methyl]-1,2,3,4-tetrahydroisoquinoline-2-carbonyl]-1,2,3,4-tetrahydroisoquinolin-6-yl]-1,2-dimethyl-1H-pyrrole-3-carboxamide]	0.05	0.2	3.9	0.1	4.3	84.3	0.0099	6.09	0.0602
Cc1c(N(C(=O)c2cc(-c3cc4c(cc3C(=O)N3Cc5ccccc5C[C@H]3CN3CCCCC3)CN(C(=O)Cc3ccc(OCCN(C)CCF)cc3)CC4)n(C)c2C)c2ccc(O)cc2)cc(C#N)n1C [Example 116, N-(5-cyano-1,2-dimethyl-1H-pyrrol-3-yl)-5-{2-[2-(4-{2-[(2-fluoroethyl)(methyl)amino]ethoxy}phenyl)acetyl]-7-[(3S)-3-[(piperidin-1-yl)methyl]-1,2,3,4-tetrahydroisoquinoline-2-carbonyl]-1,2,3,4-tetrahydroisoquinolin-6-yl}-N-(4-hydroxyphenyl)-1,2-dimethyl-1H-pyrrole-3-carboxamide]	0.05	0.4	7.0	0.19	3.3	61.1	0.0111	5.25	0.0583
Cc1c(N(C(=O)c2cc(-c3cc4c(cc3C(=O)N3Cc5ccccc5C[C@H]3CN3CCCCC3)CN(C(=O)Cc3ccc(OCCN5CCN(CCF)CC5)cc3)CC4)n(C)c2C)c2ccc(O)cc2)cc(C#N)n1C [Example 122, N-(5-cyano-1,2-dimethyl-1H-pyrrol-3-yl)-5-{2-[2-(4-{2-[4-(2-fluoroethyl)piperazin-1-yl]ethoxy}phenyl)acetyl]-7-[(3S)-3-[(piperidin-1-yl)methyl]-1,2,3,4-tetrahydroisoquinoline-2-carbonyl]-1,2,3,4-tetrahydroisoquinolin-6-yl}-N-(4-hydroxyphenyl)-1,2-dimethyl-1H-pyrrole-3-carboxamide]	0.05	0.3	5.1	0.13	3.7	69.8	0.0167	3.96	0.0662
Cc1c(N(C(=O)c2cc(-c3cc4c(cc3C(=O)N3Cc5ccccc5C[C@H]3CN3CCC(F)(F)CC3)CN(C(=O)Cc3ccc(OCCN5CCOCC5)cc3F)CC4)n(C)c2C)c2ccc(O)cc2)cc(C#N)n1C [Example 130, N-(5-cyano-1,2-dimethyl-1H-pyrrol-3-yl)-5-{7-[(3S)-3-[(4,4-difluoropiperidin-1-yl)methyl]-1,2,3,4-tetrahydroisoquinoline-2-carbonyl]-2-(2-{2-fluoro-4-[2-(morpholin-4-yl)ethoxy]phenyl}acetyl)-1,2,3,4-tetrahydroisoquinolin-6-yl}-N-(4-hydroxyphenyl)-1,2-dimethyl-1H-pyrrole-3-carboxamide]	0.4	2.3	5.8	1.33	6.1	15.3	0.0055	4.69	0.0258

Continued, in another order:

Ki (BCL2 WT) [nM]	Ki (BCL2 G101V [1]) [nM]	TR_FRET EKI G101V/WT selectivty ratio (BCL2 G101V [2])	Ki (BCL2 D103Y) [nM]	Ki (BCLXL WT) [nM]	TR_FRET EKI BCLxL/WT selectivty ratio (BCLXL WT)	SMILES	IC50 (KMS-12-PE Bcl-2 WT) [µM]	Ratio (G101V/WT) (KMS-12-PE Bcl-2 G101V)	IC50 (KMS-12-PE Bcl-2 G101V) [µM]
0.1	0.5	5.1	0.14	5.2	52.5	Cc1c(N(C(=O)c2cc(-c3cc4c(cc3C(=O)N3Cc5ccccc5C[C@H]3CN3CCCCC3)CN(C(=O)Cc3ccc(OCCC5CCOCC5)nc3)CC4)n(C)c2C)c2ccc(O)cc2)cc(C#N)n1C [Example 118, N-(5-cyano-1,2-dimethyl-1H-pyrrol-3-yl)-N-(4-hydroxyphenyl)-1,2-dimethyl-5-[2-(2-{6-[2-(oxan-4-yl)ethoxy]pyridin-3-yl}acetyl)-7-[(3S)-3-[(piperidin-1-yl)methyl]-1,2,3,4-tetrahydroisoquinoline-2-carbonyl]-1,2,3,4-tetrahydroisoquinolin-6-yl]-1H-pyrrole-3-carboxamide]	0.0107	7.61	0.0814
0.04	0.2	5.6	0.14	2.2	56.4	Cc1c(N(C(=O)c2cc(-c3cc4c(cc3C(=O)N3Cc5ccccc5C[C@H]3CN3CCCCC3)CN(C(=O)Cc3ccc(OCCN5CCN(C)CC5)cc3)CC4)n(C)c2C)c2ccc(O)cc2)cc(C#N)n1C [Example 119, N-(5-cyano-1,2-dimethyl-1H-pyrrol-3-yl)-N-(4-hydroxyphenyl)-1,2-dimethyl-5-[2-(2-{4-[2-(4-methylpiperazin-1-yl)ethoxy]phenyl}acetyl)-7-[(3S)-3-[(piperidin-1-yl)methyl]-1,2,3,4-tetrahydroisoquinoline-2-carbonyl]-1,2,3,4-tetrahydroisoquinolin-6-yl]-1H-pyrrole-3-carboxamide]	0.0284	2.57	0.073
0.15	0.8	5.5	0.24	14.4	96.0	Cc1c(C(=O)N(c2ccc(O)cc2)c2cc(C#N)n(C(F)F)c2C)cc(-c2cc3c(cc2C(=O)N2Cc4ccccc4C[C@H]2CN2CCCCC2)CN(C(=O)Cc2ccc(OCCN4C[C@@H](C)O[C@@H](C)C4)cc2)CC3)n1C [Example 129, N-[5-cyano-1-(difluoromethyl)-2-methylpyrrol-3-yl]-5-{2-[2-(4-{2-[cis-2,6-dimethylmorpholin-4-yl]ethoxy}phenyl)acetyl]-7-{[(3S)-3-(piperidin-1-ylmethyl)-3,4-dihydro-1H-isoquinolin-2-yl]carbonyl}-3,4-dihydro-1H-isoquinolin-6-yl}-N-(4-hydroxyphenyl)-1,2-dimethylpyrrole-3-carboxamide]	0.014	4.5143	0.0632
